Measurements published in ChEMBL document CHEMBL3507680, “University of Dundee, Gates Library screen for HepG2 cell viability”.

Test: Human HepG2 cell viability assay in 384 well format
Type: toxicity, cell-based
Set-up: dose 125 nL, time 70.5 hour; concentration not given beside the values
Settings: HepG2 cells, read-out: Inhibition

SMILES	cytotoxicity at 70.5 h [%]
CC(=O)N1CCCC2(CCN(c3ccccc3)C2=O)C1 (stereo not drawn)	12.8
C=Cn1ncc(CN2C[C@@H]3CCCN3C[C@@H]2Cc2ccccc2)c1C	-2.66
c1cnn(CC2CN(Cc3csc(-c4ccsc4)n3)CCO2)c1 (stereo not drawn)	-6.82
CN1CCC(CNC(=O)c2cccc(CN3CCCCCC3)c2)C1 (stereo not drawn)	-5.88
CCOc1cc(C(=O)N2CCN(CC)CC2)cc2occc12	-3.29
CC[C@H](C)[C@@H](CO)NC(C)Cc1ccc(F)cc1 (stereo partly drawn)	-5.84
COc1ccccc1CC(=O)NC(CC(=O)O)c1ccc(F)cc1 (stereo not drawn)	-8.41
Cc1ccc(-c2csc(N)c2C#N)cc1	-16.3
O=C(NC(c1ccc(Cl)cc1)c1cccnc1)C1CC1 (stereo not drawn)	-7.72
Cc1ccc(C(=O)NCCCC2(C3OCCO3)CCOCC2)cc1C	1.93
CC(C)Nc1cccc(C(=O)NCC(O)c2ccc(F)cc2F)c1 (stereo not drawn)	-1.19
CC(C)CC(=O)N1CC(=O)c2sc(Nc3ccc(F)cc3)nc2C1	1.95
COCCN1CC(=O)N(C(C)C)C(C)(C)C1	0.521
Cc1ccccc1C1CCCN1Cc1nc2c(cnn2C)c(=O)[nH]1 (stereo not drawn)	-9.08
CCN1CC(C(=O)NCc2ccc3c(c2)nc(C)n3C)CCC1=O (stereo not drawn)	-13.6
Nc1nc2c(c(N3CCCC(CN4CCCC4=O)C3)n1)CCNCC2 (stereo not drawn)	-5.58
O=C(NCCn1ccnc1)N1CCCC1c1ccncc1 (stereo not drawn)	1.26
CC(=O)N1CCC(Cc2cnc(C(=O)N3CCCC3)cn2)C1 (stereo not drawn)	-4.28
Cc1nc(NCC2CCOCC2)cc(C2CCN2S(C)(=O)=O)n1 (stereo not drawn)	-1.73
COCCNc1ccccc1CNC(=O)NCc1cnc(C)s1	-0.0167

SMILES	cytotoxicity at 70.5 h [%]
CCN(CC)c1ncc(S(=O)(=O)c2cccc(C)c2)c(N)n1	25.6
CN(CCCc1cnn(C)c1)C(=O)C1COc2ccccc2C1 (stereo not drawn)	-5.74
Cc1noc([C@@H](C)NCc2ccc(F)cc2)c1C(=O)O	-1.34
O=c1oc(-c2ccc(F)cc2)nn1CN1CCN(C2CCCC2)CC1	-9.32
CSCC(=O)NCc1cc(Br)ccc1OC(F)F	-5.17
COCC(=O)N1CCC2(COCc3c(C)nc(N(C)C)nc32)C1 (stereo not drawn)	15.4
O=C(C1CCOC1)N1CCC2(CC1)CN(c1ncccn1)CCO2 (stereo not drawn)	22.2
N#Cc1ccc(NCc2cccc(COC3CCOCC3)c2)nc1	-2.1
CCc1ccc2c(c1)C(CCNC(=O)CSC(F)(F)F)C(=O)N2 (stereo not drawn)	-1.42
COCCOCC(=O)N1CCC(c2ccccc2F)C1 (stereo not drawn)	-9.1
Cc1ccc2[nH]c(=O)c(CNCCCN3CCOCC3)cc2c1	-8.68
CCn1ncc2c1C(COC)CN(Cc1cccnc1)C2 (stereo not drawn)	21.4
CN(Cc1cnn(-c2ccccc2)n1)CC1CCCN1c1cccnn1 (stereo not drawn)	4.15
CCc1cnc(CN(C)C2CCN(CCCS(=O)(=O)NC)C2)o1 (stereo not drawn)	2.84
COC[C@@]12CCC[C@@H]1CN(C(=O)COC1CCCC1)C2	-6.5
CCc1nc(C)c(CN2CCN(c3ncnc4c(C)csc34)CC2)[nH]1	-14
Cc1nc(C(=O)N2CCC(Nc3cccnn3)CC2)cs1	28.6
CN1CC(C(=O)NCc2ccnc(-n3cccn3)c2)CC1=O (stereo not drawn)	-22.4
CN(C)CCCn1ccnc1C1CCN(c2cccc(C(=O)O)n2)CC1	-5.15
Cc1ccc(CN2CC[C@H](c3nnc(-c4ccco4)o3)C2)cc1	6.16

SMILES	cytotoxicity at 70.5 h [%]
CC(C)OC(=O)CC(NC(=O)CCn1cccn1)c1ccccc1 (stereo not drawn)	5.59
Cc1nc(C)n(CC2CCCN2CC(=O)Nc2nncs2)n1 (stereo not drawn)	-0.801
Cc1ccccc1CNC(=O)CN1CCCC(Cc2nccn2C)C1 (stereo not drawn)	-1.13
CCS(=O)(=O)N1Cc2nccn2CC(Cn2nc(C)nc2C)C1 (stereo not drawn)	-13.6
Cc1[nH]c(=O)[nH]c(=O)c1CN1CCCC(CCc2ccccc2)C1 (stereo not drawn)	-5.9
O=c1[nH]c(-c2ccncc2)ncc1-c1ccnc(N2CCOCC2)n1	-2.39
c1cnn(CC2CN(Cc3csc(C4CCCCC4)n3)CCO2)c1 (stereo not drawn)	-0.469
Cc1nn(C)c(C)c1C1CCCN1C(=O)c1ccc(C(N)=O)s1 (stereo not drawn)	17.5
NC(=O)c1cc(C2CCCN(C(=O)CCc3ccsc3)C2)n[nH]1 (stereo not drawn)	-2.62
CCOc1cc(C(=O)N2CCCC(c3noc(C(C)C)n3)C2)ccn1 (stereo not drawn)	-3.39
Cc1ccccc1-c1cc(NC(=O)NC2CC2)n(CCO)n1	1.97
COC(=O)[C@@H]1CN(C(=O)Nc2ccccc2)CCN1C(C)=O	-7
CC(O)CN1CCC(CNCc2ccccc2Cl)CC1 (stereo not drawn)	-7.56
Cc1cccc2c1nc(CCO)n2-c1ccc(C(=O)N2CCCC2)o1	12.9
O=C(CC1CCCC1)N1CC[C@H]2[C@H]1CCN2c1nncs1	19.9
CN(C)CCCn1cnc2cc(NC(=O)c3n[nH]c4c3CCC4)ccc21	-4.15
CC(=O)N1CCC(C(=O)N2CCCC(Cc3ccccn3)C2)CC1 (stereo not drawn)	-8.43
CCOC(=O)c1c(NC(=O)CN2CCN(C(C)=O)CC2)sc2c1CCC2	-0.965
